Experiment [1] in a line: Inhibition of alpha glucosidase at 1 mM using pNPG substrate incubated for 60 mins.
In experiment [2] the test system is Mus musculus. Kind of experiment: Antihyperglycemic activity in streptozotocin-induced diabetic Kunming mouse model assessed as blood glucose level at 50 mg/kg/day, po for 10 days measured on day 3 post dose (reference value: 23.97 +/- 3.79 mM). The experiment is classed as functional.
Experiment [3] has as its system Mus musculus. Kind of experiment: Antihyperglycemic activity in streptozotocin-induced diabetic Kunming mouse model assessed as blood glucose level at 100 mg/kg/day, po for 10 days measured on day 3 post dose (reference value: 23.97 +/- 3.79 mM). The experiment is classed as functional.
Experiment [4] deals with Mus musculus. In words: Antihyperglycemic activity in streptozotocin-induced diabetic Kunming mouse model assessed as blood glucose level at 50 mg/kg/day, po for 10 days measured on day 1 post dose (reference value: 19.93 +/- 6.36 mM). The class given is functional.
The subject of experiment [5] is Mus musculus. Kind of experiment: Antihyperglycemic activity in streptozotocin-induced diabetic Kunming mouse model assessed as blood glucose level at 100 mg/kg/day, po for 10 days measured on day 1 post dose (reference value: 19.93 +/- 6.36 mM). The class given is functional.
The test system of experiment [6] is HepG2. Kind of experiment: Induction of glucose consumption in human HepG2 cells at 0.1 mM assessed as glucose concentration incubated for 36 hrs. The experiment is classed as functional.
Experiment [7] deals with Mus musculus. Kind of experiment: Antihyperglycemic activity in streptozotocin-induced diabetic Kunming mouse model assessed as blood glucose level at 50 mg/kg/day, po for 10 days measured on day 10 post dose (reference value: 23.03 +/- 3.94 mM). The class given is functional.
The test system of experiment [8] is Mus musculus. Kind of experiment: Antihyperglycemic activity in streptozotocin-induced diabetic Kunming mouse model assessed as blood glucose level at 100 mg/kg/day, po for 10 days measured on day 10 post dose (reference value: 23.03 +/- 3.94 mM). The experiment is classed as functional.
The test system of experiment [9] is Mus musculus. Kind of experiment: Antihyperglycemic activity in streptozotocin-induced diabetic Kunming mouse model assessed as blood glucose level at 50 mg/kg/day, po for 10 days measured on day 7 post dose (reference value: 23.6 +/- 4.25 mM). The class given is functional.
Experiment [10] relates to Mus musculus. Kind of experiment: Antihyperglycemic activity in streptozotocin-induced diabetic Kunming mouse model assessed as blood glucose level at 100 mg/kg/day, po for 10 days measured on day 7 post dose (reference value: 23.6 +/- 4.25 mM). The experiment is classed as functional.

Experimental findings from ChEMBL document CHEMBL2202971, “Synthesis and anti-hyperglycemic activity of hesperidin derivatives” (2012) are described below.

Structures are written as SMILES. Calls of active or inactive are those of the source. The calls are words filed in the database; no cut-off is given here.

By inhibition is commonly meant how much of the control response was suppressed. As for `COc1ccc(C2CC(=O)c3c(O)cc(OCCCCBr)cc3O2)cc1OC` (stereo not given), in [1], the inhibition entry was “Active”.
Consider `COc1ccc(C2CC(=O)c3c(O)cc(OC(=O)c4ccccc4)cc3O2)cc1O` (stereo not given), for which, in experiment [1], the inhibition result was “Active”.
For `COc1ccc(C2CC(=O)c3c(O)cc(OCc4ccccc4)cc3O2)cc1O` (stereo not given), the Activity stood at 21.25 mM in experiment [2]; 20.12 mM in [3]; 17.5 mM in [4]; 16.78 mM in experiment [5]; 1.78 mM in [6]; 20.1 mM in [7]. Besides, the figures for the Activity in experiment [8], in [9] and in experiment [10] were 13.23 mM, 19.35 mM and 19.18 mM, respectively. Besides, the inhibition in experiment [1] worked out at 55%.
As to `CCC(=O)Oc1cc(O)c2c(c1)OC(c1ccc(OC)c(O)c1)CC2=O` (stereo not given), the inhibition result in experiment [1] is “Active”.
As to `CCC(=O)Oc1cc(O)c2c(c1)OC(c1ccc(OC)c(OC)c1)CC2=O` (stereo not given), the inhibition entry in [1] was “Active”.
Turning to `COc1ccc(C2CC(=O)c3c(O)cc(OC(C)=O)cc3O2)cc1O` (stereo not given), in experiment [1], the inhibition result is “Active”.
Still for that read-out and setting: in the case of `COc1ccc(C2CC(=O)c3c(O)cc(O)cc3O2)cc1O` (stereo not given) it was “Active”; in that of `COc1ccc(C2CC(=O)c3c(O)cc(OCc4ccccc4)cc3O2)cc1OC` (stereo not given), 53.3%; in that of `COc1ccc(C2CC(=O)c3c(O)cc(O)cc3O2)cc1OC` (stereo not given), “Active”.
Take `CN(C)C(=N)NC(=N)N` [METFORMIN]: the Activity was 20.72 mM in [3]; 16.98 mM in experiment [5]; 2.11 mM in [6]; 10 mM in [8]; 14.47 mM in experiment [10].
`C[C@H]1O[C@H](O[C@H]2[C@H](O)[C@@H](O)[C@@H](O[C@H]3[C@H](O)[C@@H](O)C(O)O[C@@H]3CO)O[C@@H]2CO)[C@H](O)[C@@H](O)[C@@H]1N[C@H]1C=C(CO)[C@@H](O)[C@H](O)[C@H]1O` (stereo not given in full): the inhibition in experiment [1] was 54.8%.
Same read-out and setting: the value for `CCCCOc1cc(O)c2c(c1)OC(c1ccc(OC)c(OC)c1)CC2=O` (stereo not given) was “Active”.
